# Assay results published in article PMC8155176, “Reversible modulation of circadian time with chronophotopharmacology” (Nature Communications, 2021).
# Experiments:
# CKIδ = target: T1, CKIδ (Homo sapiens, UniProt P48730); test: In vitro kinase assay (Kinase Glo), CKIδ; format: biochemical; details: green light 530 nm vs dark
# T1 construct: purchased Eurofins 14-520
# T1 sequence (P48730 1-294 limits assumed): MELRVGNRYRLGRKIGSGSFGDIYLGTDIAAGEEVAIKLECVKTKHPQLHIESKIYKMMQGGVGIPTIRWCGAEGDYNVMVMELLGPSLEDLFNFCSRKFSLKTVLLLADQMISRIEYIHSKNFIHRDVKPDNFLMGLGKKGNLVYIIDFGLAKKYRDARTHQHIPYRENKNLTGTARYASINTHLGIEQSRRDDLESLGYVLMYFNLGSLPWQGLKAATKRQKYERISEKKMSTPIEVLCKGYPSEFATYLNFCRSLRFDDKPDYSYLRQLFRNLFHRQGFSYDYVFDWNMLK
# Procedure: A stock solution of 7.4 mM in DMSO was prepared and thermally adapted by heating to c.a. 100 °C for 1 min. Two series of eight samples were prepared with consecutive three-time dilutions from the stock solution. One of the series (‘dark’ samples) was prepared in dark Eppendorf tube, the other series (‘light’ samples) was pre-irradiated with UV light (365 nm, UV lamp Spectroline, ENB-280/FE, 1 × 8 Watt) for 45 min. For compound 9, 1 mM solution in DMSO was thermally adapted by heating to 80 °C for 2 min and split into two vials. One vial was kept in the dark and the other was irradiated with green light (530 nm, 3x Nichia NCSG219B-V1, 3 × 550 mW, Sahlmann Photochemical Solutions) for 60 min. Both dark-kept and irradiated samples were subjected to 8-point 3-fold dilutions. All the solutions were applied to the well plate under a red lamp in the dark room in order to prevent ambient-light-induced photo-isomerization. […]
# By employing this method, all reactions were started at the same time, minimizing variance between different samples. […] After the incubation, 10 μL Kinase Glo® (Promega) was applied into the wells and the luminescent signal was recorded by a plate reader (BioTek Synergy H1 or Cytation). […]
# The data obtained from the in vitro kinase assay was analyzed using GraphPad software, in which the luminescence outcome is normalized. […]
# spleen explants = test: Ex vivo circadian period, spleen explants of Per2::Luc knock-in mice; set-up: species or system mouse; details: 12 µM
# Procedure: Next, we applied the light-dependent period control to the tissue level using explants of Per2::Luc knock-in reporter mice. The mice express PER2-luciferase fusion protein under control of the endogenous Per2 promoter. […] The spleen explants were treated with thermally adapted trans-9, then irradiated with green light (λmax = 530 nm) or kept in dark, and luminescence rhythms were measured (Fig. 6a, b). […] In addition to the peripheral clock in spleen, we investigated the effect of compound 9 on the central clock in the hypothalamic suprachiasmatic nucleus (SCN) that controls behavioral rhythms. […] Together, compound 9 enabled light-dependent inducible control of the circadian period at both cellular and tissue levels.
# Fig. 6 Ex vivo photo-modulation of the circadian period in mouse tissue explants. a–c The spleen explants of the Per2::Luc knock-in reporter mice were applied with 12 µM compound 9 and irradiated with green light (λmax = 530 nm) for 0 min (dark, black) or 30 min (green). Luminescence rhythms were then monitored and shown in a (mean of n = 5 for dark and n = 6 for green light). Baseline-subtracted data are shown in b. Period changes compared to a DMSO control are plotted in c. […] Luminescence is given in arbitrary units. n = 5 biologically independent samples for dark and n = 6 for green light. […] Luminescence rhythms of a representative sample for each condition are shown in d. […]
smiles,measurement,setting,value
CC(C)n1cnc2c(NCc3ccc(F)c(/N=N/c4c(F)cccc4F)c3F)ncnc21 [Compound 9],ratio of CKIδ IC50 of cis-isomer to trans-isomer,CKIδ,3.7 times
same,period effect after green light irradiation,spleen explants; 530 nm 30 min,suppressed the period-lengthening effect
same,"period effect vs DMSO control, dark",spleen explants; dark,period lengthening
